Measured values reported in US20240352066A1, “ANTIMICROBIAL COMPOUNDS AND THE METHOD OF USE” (priority 2021, published 2024).
≈ marks a conversion by molar mass, not a printed value. Where a SMILES comes first, the peptide text is derived from it. [ ]: non-standard residue; d: D form. N(tridecyl)Gly = CCCCCCCCCCCCCNCC(=O)O; Gly(N-2-aminoethyl) = NCCNCC(=O)O; Gly(N-cHex) = O=C(O)CNC1CCCCC1; Nleu = CC(C)CNCC(=O)O; Nlys = NCCCCNCC(=O)O

Experiments:
[1] = Mammalian cytotoxicity, MTT, HepG2; type: cell-based, human; conditions: human, HepG2 hepatocellular carcinoma cells
Method in brief: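 HepG2 cells (1×10^5 cells/mL, phenol-red-free DMEM, 10% FBS) were exposed to 2-fold dilutions of compound at 1.56–200 μg/mL final, in triplicate, for 72 h at 37 °C, 5% CO2. MTT was added for 3 h and, after DMSO solubilization, absorbance was read at 570 nm. TD50 is the concentration giving a 50% growth reduction versus the water vehicle, reported as the mean of biological replicates ± SD.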

[2] = system: Klebsiella pneumoniae ATCC 13883; type: cell-based; conditions: ATCC 13883, 24 h
Protocol: (§1) The minimum inhibitory concentration (MIC) of peptoids against the ESKAPE bacteria (Enterococcus faecium ATCC 6569; Staphylococcus aureus ATCC 29213; Klebsiella pneumoniae ATCC 13883; Acinetobacter 55aumannii ATCC 19606; Pseudomonas aeruginosa ATCC 25619; Enterococcus faecalis ATCC 29212; and Escherichia coli ATCC 25922) was determined following CLSI guidelines (CLSI. Methods for Dilution Antimicrobial Susceptibility Tests for Bacteria That Grow Aerobically, 11th Edition. (Clinical and Laboratory Standards Institute, 2018). The MIC against Mycobacterium smegmatis was also determined following CLSI guidelines (Woods et al., Susceptibility Testing of Mycobacteria, Nocardiae, and Other Aerobic Actinomycetes, 2nd edition. (2011)). Colonies picked from streaked tryptic soy agar plates were added to tryptic soy broth (TSB) to achieve a turbidity of OD600=0.08-0.15. Inoculant was diluted 1:200 into cation adjust Mueller Hinton Broth (CAVHB) and 90 μL was plated into each well of a 96 well black-wall plate. 2-fold serial dilutions of 10× peptoid (10 μL) were added to each well in triplicate and incubated at 37° C. for 24 hours for the ESKAPE bacteria and 72 hours for M. smegmatis. Tetracycline (20 μg/mL) was used as a positive control with DI water was used as a vehicle control. Following incubation for the ESKAPE bacteria, PrestoBlue (10 μL) was added to each well and incubated at 37° C. for one hour before measuring fluorescence on a SpectraMax M5 plate reader (Ex. 555 nm; Em. 585 nm). Following incubation for M. smegmatis, wells were scored following CLSI guidelines to determine MIC. This assay was repeated three times on separate days.

[3] = system: Pseudomonas aeruginosa ATCC 25619; type: cell-based; conditions: ATCC 25619, 24 h
Protocol: as §1

C. neoformans [4] = system: C. neoformans
in vitro = type: cell-based, mouse; conditions: mouse, 3T3 fibroblasts
Protocol: (§2) Hepatocellular carcinoma (HepG2), mouse fibroblast (3T3), human lung (HPL1A), and human keratinocyte (HaCat) cells were cultured in Dulbecco modified eagle media (DMEM) containing 10% fetal bovine serum (FBS) and 1% penicillin, streptomycin, and glutamine (PSG) at 37° C. and 5% CO2. Cells were collected and adjusted to […] to 4×10^5 cells/mL in phenol-red free DMEM and plated (100 μL) 96 well plates. 2-fold serial dilutions of 10× peptoid (11.1 μL) were added to each well in triplicate. Water (vehicle) was used as a negative control. Plates were incubated at 37° C. in 5% CO2 for 72 hours. Thiazolyl blue tetrazolium bromide (MTT) was added to each well (5 mg/mL; 20 μL) and incubated for 3 hours. Media was removed, DMSO (100 μL) was added, and plates were incubated at 37° C. for 10 minutes. Plates were read on a SpectraMax M5 plate reader (Abs. 570 nm). The concentration of compound resulting in a 50% reduction in growth compared to control (toxicity dose 50%; TD50) was determined using GraFit. This procedure was repeated three times on separate days.

3T3 fibroblasts = assay: in vitro; type: cell-based, mouse
Protocol: as §2

A. baumannii = type: cell-based, Acinetobacter baumannii; conditions: 24 h
Protocol: as §1, with “2-fold serial dilutions of 10× peptoid (10 μL) were added to each well in triplicate and incubated at 37° C. for 24 hours for the ESKAPE bacteria and 72 hours for M. smegmatis. Tetracycline (20 μg/mL) was used as a positive control with DI water was used as a vehicle control.” left out, “This assay was repeated three times on separate days.” left out

C. neoformans [5] = assay: microbe, parasite or virus in culture; type: cell-based, Cryptococcus neoformans; conditions: 72 h
Protocol: Cell solution was diluted into RPMI-MOPS (1:100) followed by another dilution into RPMI-MOPS (1:20). […] Plates were incubated for 72 hours at 35° C. MIC was determined as the lowest concentration of individual compound or combined compounds inhibiting pathogen growth. Fractional inhibitory concentration index (FICi) was determine using the following equation: FICi values were interpreted as follows: FICi<0.5 synergistic; 0.5≤FICi≤4 indifferent; FICi>4 antagonist (Johnson et al., Antimicrob. Agents Chemother. 48, 693-715 (2004)).

## CCCCCCCCCCCCCNCC(=O)N(CC(=O)N(CCCCN)CC(=O)N(CCN)CC(=O)N(CC(N)=O)CC(C)C)CC(C)C [Compound 9] (H-[N(tridecyl)Gly][Nleu][Nlys][Gly(N-2-aminoethyl)][Nleu]-NH2)
[1]
  CC50 at 72 h: 167 ± 75 µg/mL (≈ 235 µM)

## CCCCCCCCCCCCCNCC(=O)N(CC(=O)N(CCCCN)CC(=O)N(CCN)CC(=O)N(CC(N)=O)C1CCCCC1)C1CCCCC1 [RMG8-8, Ntri-Ncha-Nlys-Nae-Ncha] (H-[N(tridecyl)Gly][Gly(N-cHex)][Nlys][Gly(N-2-aminoethyl)][Gly(N-cHex)]-NH2)
[2]
  MIC K. pneumoniae: 100 µg/mL (≈ 131 µM)
[3]
  MIC P. aeruginosa: 100 µg/mL (≈ 131 µM)
C. neoformans [4]
  MIC C. neoformans after incubation with human serum: 3.13 µg/mL
  MIC C. neoformans, stock not incubated with human serum: 1.56 µg/mL
In vitro
  CC50 at 72 h: 59 ± 15 µg/mL (≈ 77.3 µM)
3T3 fibroblasts
  TD50 3T3: 59 µg/mL
[1]; Example 1, 72 hours, MTT, read-out: TD50 HepG2
  CC50 at 72 h: 189 ± 43 µg/mL (≈ 248 µM)
A. baumannii
  MIC A. baumannii: 25 µg/mL (≈ 32.8 µM)
C. neoformans [5]
  MIC (compound alone): 1.56 µg/mL
